Experimental data from US8765802B2, “Kinase inhibitors, compositions thereof, and methods of use therewith” (Provid Pharmaceuticals, Inc., priority 2007, dated 2014).
pEC50: −log10 of the molar value.

What was measured:
mouse thymocytes = test: IR-induced apoptosis in mouse thymocytes (PI staining, FACS); format: cell-based; conditions: thymocytes from Chk2+/+ or Chk2-/- mice, 1 μM for 1 h, 5 Gy IR, 16 h
Experimental: FIG. 3. […] Thymocytes were isolated from Chk2+/+ or Chk2−/− mice by mechanical disaggregation. The isolated thymocytes were treated in the absence or presence of 1 μM compound 18 or ref^λ (J. Wu et al, Bioorganic and Medicinal Chemistry letters, 2007, 17(1), 172, [N-isobutyl analog of compound 7]) for 1 hour. The cells were then exposed to 5 Gy IR and incubated for 16 hours. The cells were then washed in PBS and fixed in ethanol. Propidium isodide (PI) was added in the presence of RNAse A before being subjected to flow cytometry. The graphs show FACS analysis of the PI stained cells.

HDMX in MCF7 cells = test: HDMX degradation in MCF7 cells following DNA damage (Western blot); format: cell-based; conditions: varying concentrations 2.5 h, then 1 μM topotecan 4 h or 10 Gy IR + 4 h
Experimental: FIG. 2. […] MCF7 cells were treated in the absence (control) or presence of compound 18 at varying concentrations for 2.5 hours. The cells were then exposed to either 1 μM topotecan (TPT) for 4 hours or they were exposed to 10 Gy IR and incubated for 4 hours. Whole cell extracts were made and Western blotting was performed to detect HDMX. The levels of HDMX were quantified from the blots and normalized to actin. The normalized levels of HDMX are depicted as bar graphs under the blots.

OVCAR-4 cells = test: Combination with camptothecin in OVCAR-4 cells (MTS growth inhibition); format: cell-based, human; conditions: 48 h, MTS staining, 40 combinations
Experimental: FIG. 4. Compound 18 is synergistic with camptothecin (CPT) in OVCAR-4 cells. OVCAR-4 cells were treated with either compound 18 or CPT as single agents in 96 well tissue culture plates. In addition, the cells were exposed to 40 combinations of compound 18 and CPT. The drug treatments were for 48 hours and the cells were then subjected to MTS staining to determine the growth inhibitory effect. The graph represents a 3-dimensional plot of the MTS data obtained. The upper, light gray surface represents a theoretical surface of additivity that was generated from dose response curves of compound 18 alone and CPT alone. The lower, dark grey surface depicts the surface of the combination of compound 18 and CPT that was generated from data obtained in the MTS assay (shown by the blue circles). Data points lying under the green additivity surface are deemed to synergistic combinations. The bar graph on the right is a 2-dimensional representation of 1 combination of 11 μM compound 18 and 6.25 μM CPT taken from the 3-D model.

Chk2 = target: T1, Chk2 (Homo sapiens, UniProt O96017); test: Chk2 inhibitor IMAP assay (high-throughput Chk2 screening assay); format: biochemical; conditions: IMAP fluorescence polarization assay, 10 μM ATP
T1 construct: made in house; host or cells: E. coli BL21 Star (Invitrogen)
T1 sequence (O96017 whole entry): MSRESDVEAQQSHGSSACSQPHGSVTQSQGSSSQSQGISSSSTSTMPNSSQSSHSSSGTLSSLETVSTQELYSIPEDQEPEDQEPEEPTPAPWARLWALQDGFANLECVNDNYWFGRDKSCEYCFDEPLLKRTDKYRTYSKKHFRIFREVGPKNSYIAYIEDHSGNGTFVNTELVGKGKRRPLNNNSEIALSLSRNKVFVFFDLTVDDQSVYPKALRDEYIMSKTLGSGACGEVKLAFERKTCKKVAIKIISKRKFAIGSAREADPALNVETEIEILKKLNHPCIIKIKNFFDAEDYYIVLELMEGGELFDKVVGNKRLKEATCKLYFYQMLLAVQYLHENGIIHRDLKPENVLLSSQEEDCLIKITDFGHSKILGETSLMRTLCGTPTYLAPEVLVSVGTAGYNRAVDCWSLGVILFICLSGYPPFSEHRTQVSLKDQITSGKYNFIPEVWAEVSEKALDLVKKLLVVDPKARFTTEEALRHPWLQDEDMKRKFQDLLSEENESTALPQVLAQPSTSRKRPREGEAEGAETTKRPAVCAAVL
Experimental: Compounds set forth in Table 1 were tested in the Chk2 inhibitor IMAP assay described herein in Example 6.84. […] The letters given for the Chk2 EC50 values in Table 1 represent the following ranges: A=<100 nM; B=100-300 nM; C=300-1000 nM; D=1-10 μM; and E>10 μM.
Compounds can be screened for Chk2 inhibitory activity using a high-throughput screening assay based in the immobilized metal ion affinity-based fluorescence polarization (IMAP) assay developed by Molecular Devices. This assay is based on the high affinity binding of phosphate by immobilized metal (MIII) coordination complexes on nanoparticles. A fluorescein-labeled peptide substrate is used as the substrate for the kinase activity of Chk2 in the assay. The IMAP binding reagent stops the kinase reaction. The binding of the binding reagent results in a change in the rate of molecular motion of the peptide and causes an increase in the fluorescence polarization value observed for the fluorescein label attached to the end of the peptide. Thus, inhibition of Chk2 would result in a decrease in fluorescence polarization compared to control.
A specific protocol for screening Compounds for Chk2 inhibitory activity follows.
A Compound is supplied at 1 mM in 0.5 μl DMSO on 384 well plates (such as Greiner or Corning). After thawing, 5 μl DMSO is added to the drug plate. The drug plate is then incubated for 10 minutes to solubilize the Compound. An additional 19.5 μl of reaction buffer (10× stock prepared using 100 mM Tris-HCl, 100 mM MgCl2, 1% BSA, pH 7.2, stored at 4° C.)+1 mM DDT is added to bring the Compound to 4× final concentration. A positive control is also prepared at 4× final concentration. The following control wells are used: less enzyme control (all reagents except enzyme; 5 μl/well), less Compound control (all reagents except Compound; 5 μl/well), positive control (all reagents plus staurosporine at a final concentration of 5 μM; 5 μl/well).
Reagents are then added in the following order to give the following final concentration: 2.5 μl ATP/Chk2tide (Molecular Devices) (10 μM/100 nM final concentration), 1.25 μl Compound (5 μM final concentration inf 5.5% DMSO), and 1.25 μl Chk2 (1:500, 2.4 μg/mL final concentration).
Plates are covered and incubated at room temperature for 60 minutes.
IMAP binding reagent (Molecular Devices) is diluted 1:400 into binding buffer (Molecular Devices). 15 μl of this solution is then added to all wells and the plates are covered and incubated for 30 minutes.
Plates are read using a Tecan Ultra under the fluorescence polarization mode. Gain is set to the less enzyme and less Compound wells for each plate. Excitation 485 nm, emmission 535 nm, Z position 12519 and flashes 5 are used as settings. Raw data from the Tecan reader is imported into an access database for analysis.

## C/C(=N\NC(=N)N)c1ccc(NC(=O)c2cc3cccc([N+](=O)[O-])c3[nH]2)cc1 [Compound 18]
Mouse thymocytes
  Effect on IR-induced apoptosis: abrogation of IR-induced apoptosis
HDMX in MCF7 cells
  Effect on HDMX degradation following DNA damage: Abrogation of HDMX degradation
OVCAR-4 cells
  Combination effect with camptothecin (CPT): synergistic
Chk2
  pEC50: > 7.00

## COc1ccc2[nH]c(C(=O)Nc3ccc(C(C)=NNC(N)=NO)cc3)cc2c1 [Compound 117]
Chk2
  pEC50: > 7.00

## CC(=NNC(N)=NO)c1ccc(NC(=O)c2cc3cccc([N+](=O)[O-])c3[nH]2)cc1 [Compound 118]
Chk2
  pEC50: > 7.00

## C/C(=N\NC(=N)N)c1ccc2[nH]c(C(=O)Nc3ccc4nc[nH]c4c3)cc2c1 [Compound 121]
Chk2
  pEC50: > 7.00

## C/C(=N\NC(=N)N)c1ccc2[nH]c(C(=O)Nc3ccc4cnccc4n3)cc2c1 [Compound 122]
Chk2
  pEC50: < 5.00

## C/C(=N\NC(=N)N)c1ccc2[nH]c(C(=O)Nc3ccc4nc(C)ccc4c3)cc2c1 [Compound 125]
Chk2
  pEC50: 6.52 to 7.00

## C/C(=N\NC(=N)N)c1ccc2[nH]c(C(=O)Nc3ccc4cnccc4c3)cc2c1 [Compound 126]
Chk2
  pEC50: > 7.00

## C/C(=N/NC(=N)N)c1ccc2[nH]c(C(=O)Nc3ccc(-n4ccnc4)cc3)cc2c1 [Compound 127]
Chk2
  pEC50: 6.52 to 7.00

## C/C(=N/N/C(N)=N\O)c1ccc2[nH]c(C(=O)Nc3ccc(N4CCCCC4)cc3)cc2c1 [Compound 128]
Chk2
  pEC50: 6.52 to 7.00

## C/C(=N\N/C(N)=N/O)c1ccc(NC(=O)c2cc3cc(C(N)=O)ccc3[nH]2)cc1 [Compound 129]
Chk2
  pEC50: 6.00 to 6.52

## C/C(=N\NC(=N)N)c1ccc(NC(=O)c2cc3cc(C(CC(C)C)=NNC(=N)N)ccc3[nH]2)cc1 [Compound 130]
Chk2
  pEC50: > 7.00
